PubChem BioAssay (NCI)
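Results reflect a 48-hour exposure of cells in 96-well plates to compound at five concentrations. The concentration for 50% growth inhibition is given as GI50. TGI marks complete inhibition of growth.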 Where a SMILES comes first, the peptide text is derived from it.

What was measured:
Assay in all cases: growth of human tumour cells (NCI), 48 h
786-0 renal = tested on: 786-0 renal
A549 NSCLC = tested on: A549 NSCLC
CCRF-CEM leukemia = tested on: CCRF-CEM leukemia
HOP-62 NSCLC = tested on: HOP-62 NSCLC
MOLT-4 leukemia = tested on: MOLT-4 leukemia
NCI-H23 lung = tested on: NCI-H23 lung
OVCAR-3 ovarian = tested on: OVCAR-3 ovarian
OVCAR-4 ovarian = tested on: OVCAR-4 ovarian
OVCAR-8 ovarian = tested on: OVCAR-8 ovarian
SK-MEL-2 melanoma = tested on: SK-MEL-2 melanoma

| SMILES | TGI (786-0 renal) [µM] | TGI (A549 NSCLC) [µM] | TGI (CCRF-CEM leukemia) [µM] | TGI (HOP-62 NSCLC) [µM] | TGI (MOLT-4 leukemia) [µM] | TGI (NCI-H23 lung) [µM] | TGI (OVCAR-3 ovarian) [µM] | TGI (OVCAR-4 ovarian) [µM] | TGI (OVCAR-8 ovarian) [µM] | TGI (SK-MEL-2 melanoma) [µM] | GI50 (MOLT-4 leukemia) [µM] | GI50 (OVCAR-3 ovarian) [µM] | GI50 (CCRF-CEM leukemia) [µM] |
| --- | --- | --- | --- | --- | --- | --- | --- | --- | --- | --- | --- | --- | --- |
| COc1ccc(C2C3=CONC3CC3CCCCC32)cc1 (stereo not drawn) | > 100 | > 100 | > 100 | > 100 | > 100 | > 100 | > 100 | > 100 | > 100 | > 100 |  |  |  |
| CCC1(O)CC(O)c2c(O)c3c(c(O)c2C1C(=O)OC)C(=O)c1cccc(O)c1C3=O (stereo not drawn) | 14.3 | 14.2 | 9.71 | 16.6 | 2.19 | 24.4 | 8.63 | 13.9 | 5.88 | 10.2 |  |  |  |
| CC(=O)NCC1OC2COC(c3ccccc3)OC2C2N=C(c3ccccc3)OC12 (stereo not drawn) | > 100 | > 100 | > 100 | > 100 | > 100 | > 100 | > 100 | > 100 | > 100 | > 100 |  |  |  |
| Nc1cc2ncnc(Nc3cccc(Br)c3)c2cn1 | > 100 | > 100 | > 100 | > 100 | > 100 | > 100 | > 100 | > 100 | > 100 | 69.7 |  |  |  |
| C#Cc1cccc(Nc2ncnc3cc(OCCOC)c(OCCOC)cc23)c1 | 48 | > 100 | > 100 | 59.7 | > 100 | > 100 | > 100 | > 100 | > 93.3 | 50.6 | 24.2 | 3.53 |  |
| Cc1c(Cl)c(=O)oc2cc(OCC(O)COC(C)C)ccc12 (stereo not drawn) | > 100 | > 100 | > 100 | > 100 | 66.9 | > 100 | > 100 | > 100 | > 100 | 58.2 |  |  |  |
| O=C1c2ccccc2C2(c3ccc(Cl)cc3)N[C@@H]3CCCC[C@@H]3N12 (stereo partly drawn) | > 100 | > 100 | > 100 | > 100 | > 100 | > 100 | > 100 | > 100 | > 100 | > 100 |  |  |  |
| Cc1cccc(=O)c([O-])c1.Cc1cccc(=O)c([O-])c1.Cc1cccc(=O)c([O-])c1.Cc1cccc(=O)c([O-])c1.[Th+4] | > 78.5 | > 100 | 49.7 | > 100 | > 27 | > 76.6 | > 22 | > 100 | > 100 | 97.5 |  |  | 2.52 |
| Cc1ccc(S(=O)(=O)CC2CCCn3c2c(C#N)c2ccccc23)cc1 (stereo not drawn) | > 100 | > 100 | > 100 | > 100 | > 100 | > 100 | > 100 | > 100 | > 100 | > 100 |  |  |  |
| CCC(C)C(NC(=O)C1CCCN1)C(=O)NC(C(=O)NCC(=O)NC(CC(N)=O)C(=O)NC(CC(C)C)C(=O)NC(CC(C)C)C(=O)NC(CCCCN)C(N)=O)C(C)C (stereo not drawn) (H-PIVGNLLK-NH2; configuration not given here) | > 75 | > 75 | > 75 | > 75 | > 75 | > 75 | > 75 | > 75 | > 75 | > 75 |  |  |  |
| COc1ccc(/C=N/N=C(\N)NO)c(OC)c1OC | > 100 | > 100 | 76.1 | > 100 | > 100 | > 100 | 67.3 | > 100 | 41.9 | > 100 |  |  |  |
| CC(C)CCCC(C)[C@H]1CC[C@H]2NCCCC[C@]12C (stereo partly drawn) | 10.5 | 31.7 | 4.16 | 29.1 | 6.32 | 23.8 | 31.7 | 17.4 | > 25.4 | 7.82 |  |  |  |
| CCOC(=O)c1nc2ccccc2nc1Nc1ccc(F)cc1 | > 72.2 | > 100 | > 100 | 38.2 | > 100 | 69.1 | > 100 | > 100 | 32 | > 83.4 |  |  |  |
| CN1C(=O)C(CCO)(C(C)(C)C)c2ccccc21 (stereo not drawn) | > 100 | > 100 | > 100 | > 100 | > 100 | > 100 | > 100 | > 100 | > 100 | > 100 |  |  |  |
| COc1ccc(OC)c(-c2cn3c(n2)sc2ccccc23)c1 | > 100 | > 100 | > 100 | > 100 | > 100 | > 100 | > 100 | > 100 | > 100 | > 100 |  |  |  |
| C=C1CC(Cn2cc(Br)c(=O)[nH]c2=O)(c2ccc(Br)cc2)OC1=O (stereo not drawn) | 3.27 | 29 | 5.26 | 31 | 6.13 | 10.6 | > 35 | 4.63 | > 100 | 3.74 |  |  |  |
| Cc1cn(C2CC(SCCO)C(CO)O2)c(=O)[nH]c1=O (stereo not drawn) | > 100 | > 100 | > 100 | > 100 | > 100 | > 100 | > 100 | > 100 | > 100 | > 100 |  |  |  |
| CCCCCCCCCCC[N+]1(Cc2ccccc2)CC2CCN(Cc3ccccc3)CC2C1 (stereo not drawn) | 2.21 | 2.43 | 1.14 | 2.14 | 1.25 | 1.03 | 1.28 | 2.02 | 1.5 | 0.724 |  |  |  |
| CC(=O)c1cc(S(=O)(=O)c2ccc(O)c(C(C)=O)c2)ccc1O | > 100 | > 100 | > 100 | > 100 | > 100 | > 100 | > 100 | > 100 | > 100 | > 100 |  |  |  |
| CCOc1ccccc1N=NC1C(=O)N(C(=O)CC(=O)Nc2ccccc2OC)N=C1C (stereo not drawn) | > 100 | > 100 | > 100 | 39.4 | > 100 | > 100 | > 100 | > 100 | > 100 | > 100 |  |  |  |
| O=C1/C(=C(/Br)I)c2ccccc2-c2ccccc21 | 10.2 | 32 | 5.93 | 36.6 | 6.27 | 46.4 | 24.6 | 32.3 | 31.5 | 31.5 |  |  |  |
| CCOC(=O)c1c(SCCN2CCCCC2)n(-c2ccccc2)c(=S)n(-c2ccccc2)c1=O | 28.1 | > 100 | 11.8 | 40.8 | 6.7 | 34.8 | 24.7 | 33 | 54.1 | > 100 |  |  |  |
| O=C(c1ccccc1)c1ccc2nc(-c3c(Cl)c(Cl)c(Cl)c(Cl)c3C(=O)Nc3ccco3)[nH]c2c1 | > 100 | > 100 | > 100 | > 100 | > 100 | > 100 | > 100 | > 100 | > 100 | 80.4 |  |  |  |
| c1ccc2c(c1)ccc1nc(-c3ccc4c(c3)OCO4)c3c(c12)CCC3 | > 100 | > 100 | > 100 | > 100 | > 100 | > 100 | > 100 | > 100 | > 100 | > 100 |  |  |  |
| COCCN(C(=O)c1ccccc1)C1CCC(=O)c2[nH]c3ccccc3c21 (stereo not drawn) | 11.9 | 31.2 | 26.8 | 11.5 | 26.9 | 36.9 | 25.3 | 22.2 | 21.3 | 17.8 |  |  |  |
| CC(=O)NC1C(OCc2ccccc2)OC(CO)C(O)C1OCC(=O)N[C@@H](C)C(=O)N[C@H](CCC(=O)NCCCCNc1c2ccccc2nc2cccc([N+](=O)[O-])c12)C(N)=O (stereo partly drawn) | 10.1 | > 100 | > 100 | > 52.2 | > 100 | 2.54 | > 30.4 | 2.85 | 5.03 | 5 |  |  |  |
| CC(=O)Nc1nc(C)c(S(=O)(=O)NC(=O)N2c3ccccc3CCc3ccccc32)s1 | > 100 | > 100 | > 100 | > 100 | > 100 | > 100 | > 100 | > 100 | > 100 | > 100 |  |  |  |
| CC1Cc2c(cc(N)nc2Br)NC1=O (stereo not drawn) | > 100 | > 100 | > 100 | > 100 | > 100 | > 100 | > 100 | > 100 | > 100 | > 100 |  |  |  |
